Structures are written as SMILES.

The assay deals with T1, HMGB1 binding to TLR4 (Rattus norvegicus, UniProt Q9QX05).
T1 construct: from tissue; host or cells: ventral tegmental area (VTA) of alcohol-preferring (P) rats
T1 sequence (Q9QX05 26-835): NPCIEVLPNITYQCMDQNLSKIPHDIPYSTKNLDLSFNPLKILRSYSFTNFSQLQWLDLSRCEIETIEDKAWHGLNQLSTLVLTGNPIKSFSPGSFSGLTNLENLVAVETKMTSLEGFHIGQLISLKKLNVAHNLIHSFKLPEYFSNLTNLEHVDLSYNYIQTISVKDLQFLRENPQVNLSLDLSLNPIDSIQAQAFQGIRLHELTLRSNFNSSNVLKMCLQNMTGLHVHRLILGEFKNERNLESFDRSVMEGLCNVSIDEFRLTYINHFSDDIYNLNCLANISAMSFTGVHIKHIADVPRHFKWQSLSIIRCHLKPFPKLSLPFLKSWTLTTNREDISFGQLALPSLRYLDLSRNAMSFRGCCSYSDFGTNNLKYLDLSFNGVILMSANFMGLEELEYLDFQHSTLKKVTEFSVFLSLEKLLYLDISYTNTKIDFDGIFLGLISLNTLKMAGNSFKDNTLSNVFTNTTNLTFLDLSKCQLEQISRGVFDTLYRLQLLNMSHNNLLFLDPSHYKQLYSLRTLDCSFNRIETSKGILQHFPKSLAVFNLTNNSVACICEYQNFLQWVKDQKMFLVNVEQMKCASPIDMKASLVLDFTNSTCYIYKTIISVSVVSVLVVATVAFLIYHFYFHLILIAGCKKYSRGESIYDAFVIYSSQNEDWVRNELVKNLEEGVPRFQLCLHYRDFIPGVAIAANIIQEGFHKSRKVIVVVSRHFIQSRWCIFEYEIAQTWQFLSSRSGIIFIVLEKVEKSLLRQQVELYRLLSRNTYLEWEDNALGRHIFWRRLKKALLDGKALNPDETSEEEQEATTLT
Kind of assay: TLR4/HMGB1 co-immunoprecipitation in P rat VTA. The format is in vivo. The conditions noted are these: 15 mg/kg IP, P rats. The procedure: Co-Immunoprecipitation Assay RAW264.7 cells [treated with LPS (1 μg/ml), 3α,5α-THP (1 μM) or pregnenolone (1 μM)] were exposed to chemical protein crosslinking (Poulopoulos et al, 2009) at 24 hrs post-treatment. Briefly, the cells were incubated (20 min on ice) with 1 mM of the cleavable, membrane-permeable crosslinker DSP (Thermo Fisher Scientific, Cat. #PG82081). Rat VTA homogenates were incubated (20 min on ice) with 200 μM of DSP. The crosslinker was quenched in 1 M Tris buffer (pH 7.5) (to a final concentration of 10-20 mM), and the material was centrifuged at 21,000×g for 15 min. Proteins from the cells were extracted with Pierce IP Lysis Buffer (Thermo Fisher Scientific, Cat. #87787) supplemented with protease and phosphatase inhibitor cocktails (Sigma). Proteins from the VTA were extracted with CelLytic MT (dialyzable mild detergent, bicine and 150 mM NaCl; Sigma Aldrich, St. Louis, Mo., USA, Cat. #C3228) supplemented with protease and phosphatase inhibitor cocktails (Sigma) according to the manufacturers instructions. […]

Turning to `CC(=O)[C@H]1CC[C@H]2[C@@H]3CC[C@H]4C[C@H](O)CC[C@]4(C)[C@H]3CC[C@]12C` [3α,5α-THP, (3α,5α)3-hydroxypregnan-20-one], the “HMGB1 binding to TLR4 in VTA” value was “not altered”.
